Experimental data: PubChem BioAssay (NCI)
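48-hour exposure; five concentrations; linearly interpolated endpoints. GI50 marks 50% less growth. TGI is the concentration that stops growth completely.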

Experiments:
Experiment in all cases: growth of human tumour cells (NCI), 48 h
CCRF-CEM leukemia = test system: CCRF-CEM leukemia
OVCAR-5 ovarian = test system: OVCAR-5 ovarian
HOP-92 NSCLC = test system: HOP-92 NSCLC
OVCAR-8 ovarian = test system: OVCAR-8 ovarian
HOP-62 NSCLC = test system: HOP-62 NSCLC
K-562 leukemia = test system: K-562 leukemia
HCT-15 colon = test system: HCT-15 colon
HL-60(TB) leukemia = test system: HL-60(TB) leukemia
SW-620 colon = test system: SW-620 colon
SF-295 CNS = test system: SF-295 CNS

Row | SMILES | GI50 (CCRF-CEM leukemia) [µM] | TGI (CCRF-CEM leukemia) [µM] | GI50 (OVCAR-5 ovarian) [µM] | TGI (OVCAR-5 ovarian) [µM] | GI50 (HOP-92 NSCLC) [µM] | TGI (HOP-92 NSCLC) [µM] | GI50 (OVCAR-8 ovarian) [µM] | TGI (OVCAR-8 ovarian) [µM] | GI50 (HOP-62 NSCLC) [µM] | TGI (HOP-62 NSCLC) [µM] | GI50 (K-562 leukemia) [µM] | TGI (K-562 leukemia) [µM] | GI50 (HCT-15 colon) [µM] | TGI (HCT-15 colon) [µM] | GI50 (HL-60(TB) leukemia) [µM] | TGI (HL-60(TB) leukemia) [µM] | GI50 (SW-620 colon) [µM] | TGI (SW-620 colon) [µM] | GI50 (SF-295 CNS) [µM] | TGI (SF-295 CNS) [µM]
1 | O=C(NCCc1ccccn1)OCc1nc2nc(Cl)nc(N3CCOCC3)c2[nH]1 | 2.18 | 9.74 | 1.67 | 3.38 | 1.15 | 3.81 | 3.17 | 15.4 | 2.37 | 12.6 | 2.07 | 14.3 | 1.74 | 5.17 | 1.83 | 4.96 | 1.7 | 4.25 | 4.96 | 17.4
2 | CC1=NN(C(=O)c2ccc(Cl)cc2)C(=O)/C1=C/c1ccccc1O |  | > 100 |  | > 100 |  | > 100 |  | > 100 |  | > 100 |  | > 100 |  | > 100 |  | > 100 |  | > 100 |  | > 100
3 | Cc1nc(Nc2ccccn2)sc1C(=O)/C=C/c1ccc(Cl)cc1 | 0.445 | > 100 | 0.587 | > 79.4 | 1.21 | 31.4 | 0.472 | > 100 | 0.574 | > 100 | 0.395 | > 100 | 0.355 | > 100 | 0.353 |  | 0.445 | > 100 | 0.308 | 23
4 | N.N.N.N.N.O=[N+]([O-])[O-].[Co+3].[O-][Cl+3]([O-])([O-])[O-] | > 100 | > 100 | > 100 | > 100 | > 100 | > 100 | > 100 | > 100 | > 100 | > 100 | > 100 | > 100 | > 100 | > 100 | > 100 | > 100 | > 100 | > 100 | > 100 | > 100
5 | Cc1nc2c(n1C)C(=O)c1ccccc1C2=O | 59.3 | > 100 | > 100 | > 100 | > 100 | > 100 | > 100 | > 100 | > 100 | > 100 | 59.3 | > 100 | 53.6 | > 100 | 46.8 | > 100 | 52 | > 100 | 10.8 | 72.3
6 | CC(=O)OCC(=O)[C@@]12OC(C)(C)O[C@@H]1C[C@H]1[C@@H]3CC(C=O)=C4C=C(OCCCl)CC[C@]4(C)[C@@]3(F)[C@@H](O)C[C@@]12C |  | > 100 |  | > 100 |  | 90.2 |  | > 100 |  | 51.9 |  | > 100 |  | > 100 |  | 97.1 |  | > 100 |  | 46.4
7 | Cc1nc2ccc(NC(=O)CCNC(=O)CCCc3ccc(CC(C(=O)O)C(=O)O)cc3)cc2s1 | > 100 | > 100 | > 100 | > 100 | > 100 | > 100 | > 100 | > 100 | > 100 | > 100 | > 100 | > 100 | > 100 | > 100 | > 100 | > 100 | > 100 | > 100 | > 100 | > 100
8 | O=c1cc(N/N=C/c2ccc(F)cc2)c2cc(Cl)ccc2[nH]1 | 12 | > 100 | 21.6 | 58.9 | 14 | 45.9 | 19.8 | > 100 | 20.7 | > 100 | 13.2 | 93.2 | 19.9 | > 100 | 18.8 | 50.9 | 26.8 | > 100 | 21.9 | > 100
9 | CCOC(=O)N1CCc2cc(OC)c(OC)cc2/C1=C\c1ccc(OC)c(OC)c1 |  | 72 |  | > 100 |  | 56.1 |  | 92.7 |  | > 100 |  | > 10 |  | > 100 |  | 53.1 |  | > 100 |  | 61.2
10 | O=C(Oc1ccc(CO[N+](=O)[O-])cc1)c1ccccc1 | 0.0324 | 0.173 | 0.172 | 0.316 | 0.151 | 0.313 | 0.153 | 0.288 | 0.161 | 0.316 | 0.0708 | 0.325 | 0.172 | 0.358 | 0.0514 | 0.267 | 0.103 | 0.251 | 0.194 | 0.631
11 | Cn1cc(-c2ccc3nnc(Sc4ccc5ncccc5c4)n3n2)cn1 | 51.6 | > 100 | 61.9 | > 100 | 7.07 | > 71.4 | 66.7 | > 100 | 30.9 | > 100 | 38.4 | > 100 | > 100 | > 100 | > 100 | > 100 | > 100 | > 100 | 2.06 | > 100
12 | CSCCCNC(=O)c1ccc2c(c1)/C(=C/c1[nH]c(C)cc1C)C(=O)N2 | 4.36 | > 100 | 3.85 | > 100 | 1.03 | > 100 | 1.95 | > 100 | 0.286 | > 100 | 2.01 | > 100 | 0.44 | > 100 | 2.54 | > 100 | 0.846 | > 100 | 2.15 | > 100
13 | O=C1/C(=C/c2ccccc2)CN(C(=O)CCN2CCCC2)C/C1=C\c1ccccc1 |  | 1.06 |  | 7.7 |  | 14.8 |  | 6.17 |  | 16 |  | 4.69 |  | 3.97 |  | 1.18 |  | 0.511 |  | 2.6
14 | COC(=O)COc1ccc(/C=C2/N=C(c3ccccc3)N(c3c(C)n(C)n(-c4ccccc4)c3=O)C2=O)cc1 | 13.2 | 50.2 | 62.4 | > 100 | 25.1 | 55.1 | 18.8 | 33.7 | 31.7 | 97.7 | 30.4 | > 100 | 66.5 | > 100 | 26.2 | 67.2 | 22 | 50.6 | 33.5 | > 100
